The results in this text go back to ChEMBL document CHEMBL6096697, “Structure-Guided Discovery of Novel N4-(Substituted Thiazol-2-yl)-N2-(4-Substituted phenyl)pyrimidine-2,4-Diamines as Potent CDK2 and CDK9 Dual Inhibitors with High Oral Bioavailability” (J Med Chem, 2025).

One data set relates to HepG2. As to the kind of experiment: Antiproliferative activity against human HepG2 cells assessed as cell growth inhibition incubated for 48 hrs by MTT assay. In kind it is functional, cell-based. The settings on record: HepG2, 48 h. (In general: Formazan colour is commonly taken as a measure of viable cells.)
Another data set relates to A549. As to the kind of experiment: Antiproliferative activity against human A549 cells assessed as cell growth inhibition incubated for 48 hrs by MTT assay. In kind it is functional, cell-based. The settings on record: A549, 48 h.
For the next data set, the system named is A2780. The data set can be described thus: Antiproliferative activity against human A2780 cells assessed as cell growth inhibition incubated for 48 hrs by MTT assay. The class given is functional, cell-based. The following applies: A2780, 48 h.
A further data set relates to HCT-116. As to the kind of experiment: Cytotoxicity against human HCT-116 cells assessed as cell growth inhibition incubated for 48 hrs by MTT assay. In kind it is functional, cell-based. The settings on record: HCT-116, 48 h.
Another data set concerns MV4-11. The data set can be described thus: Antiproliferative activity against human MV4-11 cells assessed as cell growth inhibition incubated for 48 hrs by MTT assay. The class given is functional, cell-based. The following applies: MV4-11, 48 h.
For another data set, the system named is MCF7. As to the kind of experiment: Antiproliferative activity against human MCF7 cells assessed as cell growth inhibition incubated for 48 hrs by MTT assay. The class given is functional, cell-based. The settings on record: MCF7, 48 h.
In another data set the test system is MDA-MB-231. As to the kind of experiment: Antiproliferative activity against human MDA-MB-231 cells assessed as cell growth inhibition incubated for 48 hrs by MTT assay. In kind it is functional, cell-based. The settings on record: MDA-MB-231, 48 h.
A further data set deals with HeLa. As to the kind of experiment: Antiproliferative activity against human HeLa cells assessed as cell growth inhibition incubated for 48 hrs by MTT assay. In kind it is functional, cell-based.
Data set [1] has as its target Cyclin-dependent kinase 2/cyclin A (Homo sapiens, UniProt P24941). As to the kind of experiment: Inhibition of CDK2/cyclin A (unknown origin) using […] incubated for 40 mins in presence of ATP by Kinase-Glo assay. In kind it is protein-complex assay. (In general: Kinase-Glo reads ATP consumption through a luciferase reaction.)
For another data set, the system named is U-87 MG. The data set can be described thus: Antiproliferative activity against human U-87 MG cells assessed as cell growth inhibition incubated for 48 hrs by MTT assay. The class given is functional, cell-based, U-87MG ATCC.
Data set [2] can be described thus: Antiproliferative activity against HEK293 cells assessed as cell growth inhibition incubated for 48 hrs by MTT assay. In kind it is toxicity, cell-based. The following applies: human.
A further data set relates to HT-29. The data set can be described thus: Antiproliferative activity against human HT-29 cells assessed as cell growth inhibition incubated for 48 hrs by MTT assay. In kind it is functional, cell-based. The following applies: HT-29, 48 h.
The nature of data set [3]: Inhibition of CDK1/cyclin B (unknown origin) using […] incubated for 40 mins in presence of ATP by Kinase-Glo assay. Further details: species or system Homo sapiens.
Data set [4] in a line: Inhibition of CDK9/cyclin T (unknown origin) using […] incubated for 40 mins in presence of ATP by Kinase-Glo assay. The arrangement: species or system Homo sapiens.
Data set [5] concerns the target Glycogen synthase kinase-3 alpha (Homo sapiens) (UniProt P49840). As to the kind of experiment: Inhibition of GSK3-alpha (unknown origin) at 1 uM relative to control.
In data set [6] the target is Aurora kinase A (Homo sapiens) (UniProt O14965). As to the kind of experiment: Inhibition of Aurora A (unknown origin) at 1 uM relative to control.
The species named for another data set is Homo sapiens. As to the kind of experiment: Inhibition of c-Src (unknown origin) at 1 uM relative to control.

As a reminder, the IC50 is the concentration that inhibits the measured activity by half. One may read the inhibition as how much of the control response was suppressed. Low readings indicate a response near the control, high ones a response far below the control.

Sequence of Glycogen synthase kinase-3 alpha (Homo sapiens) (P49840 2-483 limits assumed): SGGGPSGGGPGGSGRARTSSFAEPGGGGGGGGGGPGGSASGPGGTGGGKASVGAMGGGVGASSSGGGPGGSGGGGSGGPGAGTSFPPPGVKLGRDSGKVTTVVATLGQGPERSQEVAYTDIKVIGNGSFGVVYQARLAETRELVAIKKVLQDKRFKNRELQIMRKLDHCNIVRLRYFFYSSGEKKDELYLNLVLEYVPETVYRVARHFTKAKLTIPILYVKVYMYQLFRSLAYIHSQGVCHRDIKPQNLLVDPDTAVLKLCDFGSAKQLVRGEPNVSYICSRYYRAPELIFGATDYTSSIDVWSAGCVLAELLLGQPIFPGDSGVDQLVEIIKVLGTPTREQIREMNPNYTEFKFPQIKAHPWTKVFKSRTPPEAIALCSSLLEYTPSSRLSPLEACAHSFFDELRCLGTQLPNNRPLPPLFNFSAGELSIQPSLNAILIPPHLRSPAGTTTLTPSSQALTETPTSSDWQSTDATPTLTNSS
Sequence of Aurora kinase A (Homo sapiens) (O14965 whole entry): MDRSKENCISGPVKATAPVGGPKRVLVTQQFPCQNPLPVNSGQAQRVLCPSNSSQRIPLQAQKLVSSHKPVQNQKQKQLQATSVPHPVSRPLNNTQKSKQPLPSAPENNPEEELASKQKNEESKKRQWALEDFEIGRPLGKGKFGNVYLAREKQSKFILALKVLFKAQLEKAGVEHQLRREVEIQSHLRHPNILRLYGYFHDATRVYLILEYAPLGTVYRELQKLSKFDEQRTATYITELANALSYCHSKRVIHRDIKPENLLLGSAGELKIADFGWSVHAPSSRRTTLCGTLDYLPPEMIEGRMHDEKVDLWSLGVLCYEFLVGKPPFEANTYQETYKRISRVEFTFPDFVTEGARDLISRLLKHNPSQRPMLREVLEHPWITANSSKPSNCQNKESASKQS

In the case of `CCOC(=O)CNc1ccnc(Nc2ccc(OC)cc2)n1`, the IC50 in the data set on HepG2 is above 30 µM; with A549, above 30000 nM; in the data set on A2780, above 30000 nM; in the data set on HCT-116, above 10000 nM; in the data set on MV4-11 it was 28.1 µM; in the data set on MCF7, above 30 µM. The IC50 was 32.6 µM with MDA-MB-231; 29.3 µM in the data set with HeLa; 4.09 µM in data set [1]; above 30 µM with U-87 MG; above 30000 nM in the data set on HT-29; above 30 µM in data set [3]. Also, in [4], the IC50 came to 26.1 µM. For the same compound, the IC50 at 48 h in data set [2] came to 126 µM.
As for `Cc1ncc(-c2ccnc(Nc3ccc(S(C)(=O)=O)cc3)n2)n1C(C)C` [AZD-5438], the IC50 with HepG2 came out at 12.4 µM; with A549 it was 1470 nM; with A2780 it was 1260 nM; with HCT-116, 477 nM; in the data set with MV4-11 it was 2.08 µM; with MDA-MB-231, 0.151 µM. The IC50 with U-87 MG was above 30 µM; in the data set with HT-29 it was 1160 nM; in data set [4], 0.018 µM. For the same compound, the inhibition (in [5]; in data set [6]; in the data set filed under Homo sapiens) was above 50% each time. Besides, the IC50 at 48 h in data set [2] came to 18 µM.
